The target in this experiment is T1, cIAP2-BIR3 (Homo sapiens, UniProt Q13489).
T1 construct: gene BIRC3; BIR3 domain, residues 245-357 as printed (jointly with cIAP1), C-terminal 6xHis-tag, pET21(b), E. coli BL21(DE3)
Put plainly: fluorescence polarization displacement of fluorescent probe FITC-SMAC. To be noted: read-out: Fluorescence Binding Assays IC50 [nM] / cIAP2-BIR3. The text has this: fluorescence polarization displacement of fluorescent probe FITC-SMAC on cIAP2-BIR3
For orientation: Fluorescence polarisation rises when a labelled molecule tumbles more slowly, as on binding a larger partner.

T1 sequence (Q13489 245-357): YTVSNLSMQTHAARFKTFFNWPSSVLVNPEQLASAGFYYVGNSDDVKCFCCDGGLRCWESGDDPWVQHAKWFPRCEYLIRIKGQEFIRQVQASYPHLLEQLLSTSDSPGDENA

For the compound `CC[C@H](NC)C(=O)N[C@@H]1C(=O)N2[C@@H](CC[C@@H]1CO)CC[C@H]2C(=O)N[C@@H](c1ccccc1)c1cn(CCCCc2ccc(CCCCn3cc([C@@H](NC(=O)[C@@H]4CC[C@@H]5CC[C@H](CO)[C@H](NC(=O)[C@H](CC)NC)C(=O)N54)c4ccccc4)nn3)cc2)nn1` [9a], the IC50 is 1.9 ± 0.9 nM.

The values are drawn from paper PMC3499469, “Structural Insight into Inhibitor of Apoptosis Proteins Recognition by a Potent Divalent Smac-Mimetic” (PLoS ONE, 2012).
